Where two headings read alike, the source gives them in different places.
Key:
VHL [1] = target: T1, VHL (Homo sapiens, UniProt P40337); test: VHL HEK-293 BRET Assay (VHL NanoBRET Target Engagement Assay); format: cell-based; settings: HEK 293 RT VHL-NanoLuc stable cells
T1 construct: expressed in transfected cells
Experimental: The VHL NanoBRET™ Target Engagement Assay analyzes the apparent affinity of test compounds for VHL in cells by competitive displacement of a VHL NanoBRET™ tracer reversibly bound to a NanoLuc® VHL fusion protein stably expressed in the cells.
Test compounds were transferred to the assay plate (384 Well White Non-Binding Corning Assay Plates (Corning-3574)) using an Echo 555 Liquid Handler (Labcyte) in 2.5 nL increments and, as appropriate, intermediate stock concentrations of compounds, in order to prepare a titration series. 50 nL of control compound (10 mM; parental unlabeled VHL antagonist; see structure below) and 50 nL of DMSO (negative control) were dispensed into the appropriate control wells. DMSO was backfilled to a final volume of 50 nL as required. 50 nl per well of 1 mM VHL NanoBRET™ Tracer in DMSO (NanoBRET™ Tracer-PEG2-590 (see structure below)) was transferred into each well using an Echo 555 (ultimately yielding a final concentration of 1 uM). HEK 293 RT VHL-NanoLuc® stable cells were cultured in DMEM High Glucose with Pyruvate, 10% fetal bovine serum, 2 mg/mL of Geneticin Selective Antibiotic (50 mg/mL) and 2 mM HEPES (1 M). Cells were seeded in Opti-MEM (Life Technologies-11058-021), 1.7×10^5 cells/mL, 40 μl per well into the assay plate, centrifuged at 500 rpm for 30 seconds and incubated for 2 hours. Max Signal control wells consisted of DMSO only treated wells. Minimum Signal control wells contained of 10 uM parental unlabeled VHL antagonist (control compound—see structure below). 3× Complete Substrate plus Inhibitor Solution was prepared in Opti-MEM (consists of a 1:166 dilution of NanoBRET™ Nano-Glo® Substrate plus a 1:500 dilution of Extracellular NanoLuc® Inhibitor in Opti-MEM), and 20 ul was dispensed into each well of the 384-well plate and centrifuged at 1000 rpm for 1 minute, then incubated for 2 minutes at room temperature. Background Signal control wells were prepared without tracer for background correction steps.
Plates were read using a PerkinElmer Envision Reader (model 2104-0020) equipped with Luminescence option (Mirror: BRET2 Enh (PE Barcode 659), Emission Filter: Omega 610LP (Barcode 504), 2nd Emission Filter: Umbelliferone 460 (Barcode 207), Measurement height: 6.5 mm, Measurement time: 1 s). The raw BRET ratio values were calculated by dividing the acceptor emission value (610 nm) by the donor emission value (460 nm) for each sample. To correct for background, the BRET ratio in the absence of tracer (average of no-tracer control samples) was subtracted from the BRET ratio of each sample. Raw BRET units were converted to milliBRET units (mBU) by multiplying each raw BRET value by 1,000. The normalized NanoBRET™ signal was calculated relative to the Max Signal control wells (DMSO treated control wells) and the Minimum Signal control wells. Percentage inhibition was calculated relative to the Minimum Signal control and Maximum Signal control wells. IC50 values were derived by four parameter curve fitting using the Robust method.

CAL-120 [2] = settings: 10 µM
Experimental: (§1) Cell lines were cultured in RPMI-1640, 5% fetal bovine serum, and 2 mM glutamine in a humidified incubator maintained at 37° C. with 5% CO2. Cells were assessed with a Vi-CELL Cell Viability Analyzer (Beckman Coulter; Brea, CA); viability of at least 90% was required for screening. A Multidropä Combi Reagent Dispenser (Thermo Scientific; Waltham, MA) was used to plate cells into Falcons^â 384-well, black, clear-bottom plates (Catalog No. 353962; Corning; Tewksbury, MA) using seeding densities previous determined to achieve approximately 80% confluence at the final time point of the assay. The compounds were prepared at 1000× in advance using an Echo 555 liquid handler (Labcyte; Sunnyvale, CA) and stored in −80° C. until the day of compound addition. On the following day, cells were treated with compounds at final assay concentration 1 uM and 10 uM using a Bravo Automated Liquid-Handling Platform (Agilent; Santa Clara, CA). After 5 days, 25 mL CellTiter-Glo^â reagent was added using a MultiFloä Microplate Dispenser (BioTek; Winooski, VT). Cell lysis was induced by mixing for 30 minutes on an orbital shaker; plates were then incubated at room temperature for 10 minutes to stabilize the luminescent signal. Luminescence was read by a 2104 EnVision^â Multilabel Plate Reader (PerkinElmer; Waltham, MA).
(§2) The data was processed using Genedata Screener^â, Version 15 (Genedata; Basel, Switzerland) to assess compound effects on viability. Compound treated wells were normalized to the median value of 14 DMSO control wells on the same 384 well plate.

ABC-1 = test: Cell Viability Assay (CellTiter-Glo); format: cell-based; settings: 10 μM, 5 days
Experimental: as §1, §2

NCI-H23 = test: Cell Viability Assay (CellTiter-Glo); format: cell-based; settings: 5 days
Experimental: as §1, §2

NCI-H2030 = test: Cell Viability Assay (CellTiter-Glo); format: cell-based; settings: 5 days
Experimental: as §1, §2

MCF-7 = test: Cell Viability Assay (CellTiter-Glo); format: cell-based; settings: 10 μM, 5 days
Experimental: (§3) Cell lines were cultured in RPMI-1640, 5% fetal bovine serum, and 2 mM glutamine in a humidified incubator maintained at 37° C. with 5% CO2. Cells were assessed with a Vi-CELL Cell Viability Analyzer (Beckman Coulter; Brea, CA); viability of at least 90% was required for screening. A Multidropä Combi Reagent Dispenser (Thermo Scientific; Waltham, MA) was used to plate cells into Falcons^â 384-well, black, clear-bottom plates (Catalog No. 353962; Corning; Tewksbury, MA) using seeding densities previous determined to achieve approximately 80% confluence at the final time point of the assay. The compounds were prepared at 1000× in advance using an Echo 555 liquid handler (Labcyte; Sunnyvale, CA) and stored in −80° C. until the day of compound addition. On the following day, cells were treated with compounds at final assay concentration 1 uM and 10 uM using a Bravo Automated Liquid-Handling Platform (Agilent; Santa Clara, CA). After 5 days, 25 mL CellTiter-Glo^â reagent was added using a MultiFloä Microplate Dispenser (BioTek; Winooski, VT). Cell lysis was induced by mixing for 30 minutes on an orbital shaker; plates were then incubated at room temperature for 10 minutes to stabilize the luminescent signal. Luminescence was read by a 2104 EnVision^â Multilabel Plate Reader (PerkinElmer; Waltham, MA). […]

SUIT-2 = test: Cell Viability Assay (CellTiter-Glo); format: cell-based; settings: 10 μM, 5 days
Experimental: as §3

KPL-1 = test: Cell Viability Assay (CellTiter-Glo); format: cell-based; settings: 5 days
Experimental: as §1, §2

NCI-H1650 = test: Cell Viability Assay (CellTiter-Glo); format: cell-based; settings: 10 μM, 5 days
Experimental: as §3

HCC366 = test: Cell Viability Assay (CellTiter-Glo); format: cell-based; settings: 5 days
Experimental: as §1, §2

SW 620 = test: Cell Viability Assay (CellTiter-Glo); format: cell-based; settings: 10 μM, 5 days
Experimental: as §3

HCC1438 = test: Cell Viability Assay (CellTiter-Glo); format: cell-based; settings: 10 μM, 5 days
Experimental: as §3

PANC-1 = test: Cell Viability Assay (CellTiter-Glo); format: cell-based; settings: 5 days
Experimental: as §1, §2

MDA-MB-436 = test: Cell Viability Assay (CellTiter-Glo); format: cell-based; settings: 10 μM, 5 days
Experimental: as §3

KPL-4 = test: Cell Viability Assay (CellTiter-Glo); format: cell-based; settings: 10 μM, 5 days
Experimental: as §3

VHL [3] = target: T1, VHL; test: VHL HEK-293 BRET Assay (VHL NanoBRET Target Engagement Assay); format: cell-based; settings: IC50 values measured in the presence of digitonin; HEK 293 RT VHL-NanoLuc stable cells; read-out: IC50 + Digi (μM)*
CAL-120 [4] = test: Cell Viability Assay (CellTiter-Glo); settings: 5 days
Experimental: as §1, §2

KNS-62 = test: Cell Viability Assay (CellTiter-Glo); format: cell-based; settings: 5 days
Experimental: as §1, §2

T1 sequence (P40337 whole entry): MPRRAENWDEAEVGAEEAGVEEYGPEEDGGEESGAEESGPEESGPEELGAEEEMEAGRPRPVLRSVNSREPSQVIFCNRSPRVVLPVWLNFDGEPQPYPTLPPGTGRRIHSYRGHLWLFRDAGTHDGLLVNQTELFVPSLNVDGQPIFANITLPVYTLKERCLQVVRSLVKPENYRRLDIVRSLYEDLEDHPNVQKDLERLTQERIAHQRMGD

Row | Compound | IC50 (VHL [1]; read-out: IC50) [µM] | Normalized viability % DMSO (ABC-1) [% DMSO] | Normalized viability % DMSO (NCI-H23; 1 μM) [% DMSO] | Normalized viability % DMSO (NCI-H23; 10 μM) [% DMSO] | Normalized viability % DMSO (NCI-H2030; 1 μM) [% DMSO] | Normalized viability % DMSO (NCI-H2030; 10 μM) [% DMSO] | Normalized viability % DMSO (MCF-7) [% DMSO] | Normalized viability % DMSO (KPL-1; 10 μM) [% DMSO] | Normalized viability % DMSO (NCI-H1650) [% DMSO] | Normalized viability % DMSO (HCC1438) [% DMSO] | Normalized viability % DMSO (PANC-1; 1 μM) [% DMSO] | Normalized viability % DMSO (PANC-1; 10 μM) [% DMSO] | Normalized viability % DMSO (MDA-MB-436) [% DMSO] | Normalized viability % DMSO (KPL-4) [% DMSO] | IC50 (VHL [3]) [µM] | Normalized viability % DMSO (CAL-120 [4]; 10 μM) [% DMSO] | Normalized viability % DMSO (KNS-62; 10 μM) [% DMSO] | also measured
1 | (2S,4R)-N-[2-(4-bromoindol-1-yl)ethyl]-1-[(2S)-2-(4-cyclopropyltriazol-1-yl)-3,3-dimethyl-butanoyl]-4-hydroxy-pyrrolidine-2-carboxamide [Compound 469] | 0.21 | – | – | – | – | – | – | – | – | – | – | – | – | – | – | – | – | IC50 (VHL [1]; IC50 values measured in the presence of digitonin, read-out: IC50 + Digi (μM)*): 0.435 µM; Normalized viability % DMSO (CAL-120 [2]): 62.6 % DMSO
2 | Cc1ncsc1-c1ccc(CNC(=O)[C@@H]2C[C@@H](O)CN2C(=O)[C@@H](n2cc(C3CC3)nn2)C(C)(C)C)cc1 [Compound 288, (2S,4R)-1-[(2S)-2-(4-cyclopropyltriazol-1-yl)-3,3-dimethyl-butanoyl]-4-hydroxy-N-[[4-(4-methylthiazol-5-yl)phenyl]methyl]pyrrolidine-2-carboxamide] | 0.00794 | 7.1 | 8.6 | 6.7 | 19.2 | 16.5 | 25.8 | 25.4 | 27.7 | 2.1 | 33.9 | 31.1 | 15.8 | 2.2 | 0.0132 | 31.9 | 26.4 | Normalized viability % DMSO (SUIT-2): 30.2 % DMSO; Normalized viability % DMSO (KPL-1; 1 μM): 40.5 % DMSO; Normalized viability % DMSO (HCC366; 1 μM): 43.0 % DMSO; Normalized viability % DMSO (HCC366; 10 μM): 22.5 % DMSO; Normalized viability % DMSO (SW 620): 28.2 % DMSO; Normalized viability % DMSO (CAL-120 [4]; 1 μM): 31.1 % DMSO; Normalized viability % DMSO (KNS-62; 1 μM): 44.3 % DMSO
3 | CC(C)(C)[C@@H](C(=O)N1C[C@H](O)C[C@H]1C(=O)NC1CC12CCc1cc(Br)ccc12)n1cc(C2CC2)nn1 (stereo partly drawn) [Compound 266, (2S,4R)-N-(5′-bromospiro[cyclopropane-2,1′-indane]-1-yl)-1-[(2S)-2-(4-cyclopropyltriazol-1-yl)-3,3-dimethyl-butanoyl]-4-hydroxy-pyrrolidine-2-carboxamide] | 3.69 | – | – | 37.6 | – | 31.8 | – | – | – | – | – | 27.6 | – | – | 9.5 | 46.4 | – | –
4 | CC(C)(NC(=O)[C@@H]1C[C@@H](O)CN1C(=O)[C@@H](n1cc(C2CC2)nn1)C(C)(C)C)C(=O)Nc1ccccc1 [Compound 480, (2S,4R)-N-(2-anilino-1,1-dimethyl-2-oxo-ethyl)-1-[(2S)-2-(4-cyclopropyltriazol-1-yl)-3,3-dimethyl-butanoyl]-4-hydroxy-pyrrolidine-2-carboxamide] | 0.135 | 38.1 | 37.0 | 8.2 | 32.4 | 5.6 | 13.7 | 47.9 | 12.6 | 11.3 | 38.1 | 22.7 | 23.6 | 38.4 | 6.66 | 15.5 | 8.7 | –
5 | CNC(=O)[C@@H]1C[C@@H](O)CN1C(=O)[C@@H](n1cc(CN2CCC(C(=O)OC)CC2)nn1)C(C)(C)C [Compound 1059, methyl 1-[[1-[(1S)-1-[(2S,4R)-4-hydroxy-2-(methylcarbamoyl)pyrrolidine-1-carbonyl]-2,2-dimethyl-propyl]triazol-4-yl]methyl]piperidine-4-carboxylate] | 18.2 | – | – | – | – | 12.7 | – | – | – | – | – | – | – | – | 7.47 | 18.1 | – | –

Reference: patent publication US20230295145A1, “PYRROLIDINE DERIVATIVES AND METHODS OF USE” (Genentech, Inc., priority 2020, published 2023)
